This note sets out measurements from patent US12624018B1, “Inhibitors of RIPK2 and medical uses thereof” (Odyssey Therapeutics, Inc., priority 2022, dated 2026).

The subject of one test is human NOD2 signaling. The test can be described thus: Inhibition of human NOD2 signaling in HEK-Blue-hNOD2 cells (L18-MDP stimulated, SEAP reporter). As to conditions: Homo sapiens, HEK-Blue hNOD2, HEK-Blue-hNOD2 cells, NOD2 ligand stimulation, SEAP reporter; read-out: hNOD2 IC50. Format: cell-based. The procedure, abridged:
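HEK-Blue-hNOD2 cells (HEK293 with NOD2 and SEAP reporter), 12500/well, treated with 10-point 3-fold compound dilutions plus L18-MDP 0.5 ng/mL final, 24 h at 37 °C. Supernatant SEAP read with QUANTI-Blue after 3 h at 620 nm; IC50 by 4-parameter fit vs DMSO±L18-MDP controls.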

The test system of test [1] is TNF-alpha secretion in human whole blood. The test can be described thus: Inhibition of TNF-alpha secretion in human whole blood (IFN-gamma primed, L18-MDP stimulated). Format: cell-based. Conditions: Homo sapiens, 16 h, L18-MDP 100 ng/mL, read-out: Human Whole Blood TNFα IC50. How it is done: Materials: Assay medium consisted of RPMI 1640 medium (catalogue number: 11875119) and 10% heat inactivated FBS (Cytvia). U-PLEX Biomarker Assay (cat #K15067L-4) to detect levels of TNF-alpha was purchased from Meso Scale Discovery. Heparinized whole blood from healthy donors/volunteers was obtained through Research Blood Components, LLC.
Test compounds were prepared into a 10 mM DMSO solution and serially diluted into 9 points using a 3-fold dilution in a 96 well plate. A 10× working stock solution of recombinant human IFN-gamma (final concentration of 10 ng/mL) was prepared in assay medium and used to prepare a 10× solution of test compound. 20 μL of 10×IFN-gamma and test compound (or DMSO control) was added to a 96-well plate. 160 μL of heparinized whole blood obtained from healthy donors was dispensed into individual wells of the 96-well plate and placed on a plate shaker (150 rpm) and incubated for 60 min at 37° C. in a CO2 incubator. Subsequently, 20 μL of L18-MDP (final concentration of 100 ng/mL) was added to the appropriate wells and further incubated for 16 hours on a plate shaker (150 rpm) at 37° C. in a CO2 incubator. The final concentration of DMSO was 0.05% (v/v) in all wells. After incubation, 100 μL of DPBS was added per well, mixed by shaking at 500 rpm for 2 minutes, followed by centrifugation (400×g for 10 minutes) and collection of supernatants. TNF-alpha in supernatants was measured using MSD immunoassay (MesoScale Discovery). 4-parametric curve fit was used to determine the test compound concentration that results in 50% reduction of TNF-alpha concentration in supernatant relative to assay controls.

For test [2], the target named is T1, RIPK2 and XIAP protein-protein interaction (Homo sapiens, UniProt O43353).
T1 construct: the N-terminus of full-length RIPK2 was appended with the HaloTag fusion protein; expressed in transfected cells; host or cells: HEK293T
The test can be described thus: Inhibition of the interaction of RIPK2 with XIAP (NanoBRET in HEK293T cells). As to conditions: RIPK2 HaloTag / XIAP NanoLuc, read-out: NanoBRET Scaffolding IC50. Format: cell-based. The procedure, abridged:
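HEK293T cells transiently co-transfected with HaloTag-RIPK2 (N-terminal) and XIAP-NanoLuc (C-terminal) full-length fusions, grown 24 h at 37° C. in Opti-MEM with 4% FBS. Compounds tested as 10-point 3-fold dilutions; NanoBRET ratio taken as 618 nm acceptor over 460 nm donor emission.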

The target in the next test is T2, RIPK2 enzyme (Homo sapiens, UniProt O43353).
T2 construct: purchased Carna 09-128
The test can be described thus: RIPK2 inhibition (ADP-Glo Kinase Assay). Format: biochemical. As to conditions: RIPK2 5 nM, ATP 150 μM, MBP substrate, read-out: RIPK2 IC50. Summed up:
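Human RIPK2 (5 nM) preincubated with compound 30 min at room temperature in 50 mM HEPES pH 7.5, 10 mM MgCl2, 2 mM DTT, 1 mM EGTA, 0.01% Brij-35, 0.05% BSA; native swine MBP as substrate. ADP formed quantified by ADP-Glo luminescence; percent inhibition relative to DMSO and no-enzyme controls.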
A general note: ADP-Glo first removes unused ATP, then detects ADP through luciferase.

SMILES strings stand for the structures. pIC50: −log10 of the molar value.

T2 sequence (O43353 1-299 limits assumed): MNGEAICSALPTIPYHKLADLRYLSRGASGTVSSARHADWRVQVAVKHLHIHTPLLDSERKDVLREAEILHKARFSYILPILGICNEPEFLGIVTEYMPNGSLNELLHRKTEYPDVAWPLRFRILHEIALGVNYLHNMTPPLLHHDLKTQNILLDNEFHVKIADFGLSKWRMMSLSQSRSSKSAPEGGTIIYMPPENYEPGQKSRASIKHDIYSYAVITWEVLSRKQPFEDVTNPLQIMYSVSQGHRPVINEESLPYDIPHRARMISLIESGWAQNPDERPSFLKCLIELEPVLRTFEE
T1 sequence (O43353 whole entry, the tested form may be a part): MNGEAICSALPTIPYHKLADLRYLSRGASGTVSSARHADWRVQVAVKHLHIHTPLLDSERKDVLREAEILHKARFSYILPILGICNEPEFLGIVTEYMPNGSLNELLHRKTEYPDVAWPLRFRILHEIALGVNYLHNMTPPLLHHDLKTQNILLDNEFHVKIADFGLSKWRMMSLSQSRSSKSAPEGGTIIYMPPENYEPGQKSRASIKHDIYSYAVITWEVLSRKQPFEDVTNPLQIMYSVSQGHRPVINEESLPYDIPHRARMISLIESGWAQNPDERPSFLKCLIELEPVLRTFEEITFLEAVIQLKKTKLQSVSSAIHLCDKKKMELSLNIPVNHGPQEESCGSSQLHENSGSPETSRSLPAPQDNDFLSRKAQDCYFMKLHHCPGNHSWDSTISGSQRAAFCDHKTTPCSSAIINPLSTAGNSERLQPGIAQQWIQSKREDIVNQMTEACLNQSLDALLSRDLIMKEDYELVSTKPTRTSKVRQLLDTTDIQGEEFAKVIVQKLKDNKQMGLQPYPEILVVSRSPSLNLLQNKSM

In the case of `CC(C)(C)n1cc(NC(=O)Cc2cc(Cl)c(Oc3ccnc4ccc(S(C)(=O)=O)cc34)cc2F)cn1` [Compound 429, N-(1-(tert-butyl)-1H-pyrazol-4-yl)-2-(5-chloro-2-fluoro-4-((6-(methylsulfonyl)quinolin-4-yl)oxy)phenyl)acetamide], the pIC50 in the test on human NOD2 signaling was 8.80; in test [1], 7.74; in test [2], 7.36; on RIPK2 enzyme, above 8.60.

Take `Cc1cc(CC(=O)Nc2nnc(C(C)(C)C)s2)c(F)cc1Oc1ccnc2ccc(S(C)(=O)=O)cc12` [Compound 443, N-(5-(tert-butyl)-1,3,4-thiadiazol-2-yl)-2-(2-fluoro-5-methyl-4-((6-(methylsulfonyl)quinolin-4-yl)oxy)phenyl) acetamide]: the pIC50 in the test on human NOD2 signaling is 8.96; in test [1] it was 7.08; in test [2], 7.96; on RIPK2 enzyme it was above 8.60.

As to `Cc1cc(CC(=O)Nc2cnn(C(C)(C)C)c2)c(F)cc1Oc1ccnc2cc(F)c(C(N)=O)cc12` [Compound 465, 4-(4-(2-((1-(tert-butyl)-1H-pyrazol-4-yl)amino)-2-oxoethyl)-5-fluoro-2-methylphenoxy)-7-fluoroquinoline-6-carboxamide], the pIC50 in the test on human NOD2 signaling is 9.70; in test [1], 8.59; in test [2], 8.38; at RIPK2 enzyme, above 8.60.

Turning to `Cc1cc(CC(=O)Nc2cnn(C(C)(C)C)c2)cc(F)c1Oc1ccnc2ccc(C(N)=O)cc12` [Compound 468, 4-(4-(2-((1-(tert-butyl)-1H-pyrazol-4-yl)amino)-2-oxoethyl)-2-fluoro-6-methylphenoxy)quinoline-6-carboxamide], the pIC50 with human NOD2 signaling is 8.68; in test [1], 8.08; in test [2], 7.16; at RIPK2 enzyme, above 8.60.

Take `Cc1c(Oc2ccnc3ccc(S(C)(=O)=O)cc23)cc(F)c(CC(=O)Nc2cnn(C(C)(C)C)c2)c1F` [Compound 472, N-(1-(tert-butyl)-1H-pyrazol-4-yl)-2-(2,6-difluoro-3-methyl-4-((6-(methylsulfonyl)quinolin-4-yl)oxy)phenyl)acetamide]: the pIC50 in the test on human NOD2 signaling was 9.52; in test [1] it was 8.39; in test [2], 7.88; at RIPK2 enzyme it was above 8.60.

As for `[2H]C([2H])([2H])NC(=O)c1ccc2nccc(Oc3cc(F)c(CC(=O)Nc4cnn(C(C)(C)C)c4)cc3C)c2c1` [Compound 492, 4-(4-(2-((1-(tert-butyl)-1H-pyrazol-4-yl)amino)-2-oxoethyl)-5-fluoro-2-methylphenoxy)-N-(methyl-d3)quinoline-6-carboxamide], the pIC50 in the test on human NOD2 signaling is 8.43; in test [1] it was 8.23; in test [2], 7.66; at RIPK2 enzyme it was above 8.60.

For `[2H]C([2H])([2H])NC(=O)c1ccc2nccc(Oc3ccc(CC(=O)Nc4cnn(C56CC(C5)C6)c4)cc3C)c2c1` [Compound 559, 4-(4-(2-((1-(bicyclo[1.1.1]pentan-1-yl)-1H-pyrazol-4-yl)amino)-2-oxoethyl)-2-methylphenoxy)-N-(methyl-d3)quinoline-6-carboxamide], the pIC50 with human NOD2 signaling is 9.00; in test [1], 8.70; in test [2], 7.02; on RIPK2 enzyme, above 8.60.
